“Also recorded” adds a separate entry of the source.
How the values were obtained:
[1] = test system: panel of 13 protein kinases; assay: ICKP screening, whole panel of 13 protein kinases; type: biochemical, human; conditions: 1 μM
Protocol: (§1) FIG. 4 illustrates the studies carried out for compounds 67 and 69. Compounds 67 and 69 (FIG. 4B) were evaluated at the International Center For Kinase Profiling (ICKP, Dundee, Scotland) toward a panel of 13 protein kinases. The results (FIG. 4A) were expressed as the mean percentage of residual activity at 1 μM concentration (duplicate assays). Small disks: ≥90%, larger disk: 59%, for both compounds. The tree was generated using the Kinome Render software, and the illustration reproduced courtesy of Cell Signaling Technology, Inc. (www.cellsignal.com) Chartier et al PeerJ 2013, 1:e126.
(§2) Results are expressed as the mean percentage of residual activity at 10 μM (Table 3) or 1 μM (Table 4). They are illustrated on FIGS. 3 and 4.
(§3) The selectivity of compound 69 was evaluated at 1 μM toward another panel containing all four p38 MAPK isoforms, ERK1, ERK2 as well as other protein kinases close to p38α MAPK in the kinome phylogenetic tree (FIG. 4, Table 4). […] Its IC50 toward p38α MAPK was determined, showing a value in the micromolar range (IC50=3.0±0.1 μM).

[2] = test system: panel of 50 protein kinases; assay: ICKP screening, whole panel of 50 protein kinases; type: biochemical, human; conditions: 10 μM
Protocol: (§4) FIG. 3 illustrates the human kinome. Compound 69 was evaluated at the International Center For Kinase Profiling (ICKP, Dundee, Scotland) toward a panel of 50 protein kinases that provide a representative sampling of the human kinome. The results were expressed as the mean percentage of residual activity at 10 μM concentration (duplicate assays). Small disks: ≥65%, larger disk: 19%. The black square indicates the kinome region containing protein kinases evaluated in a second screening (FIG. 4, Table 4). The tree was generated using the Kinome Render software, and the illustration reproduced courtesy of Cell Signaling Technology, Inc. (www.cellsignal.com) Chartier et al PeerJ 2013, 1:e126.
as §2
(§5) Studies were undertaken to identify the possible biological target(s) of compound 69. The activation in neurons of PK such as PKCγ, ERK or p38 MAPK can contribute to pain hypersensitivity. Therefore, it was decided to screen compound 69 toward a panel of 50 PKs that provide a representative sampling of the human kinome (FIG. 3, Table 3) (Biochem. J. 2007, 408, 297-315). In this panel, p38α MAPK was identified as the privileged target, with 19% of kinase residual activity at 10 μM compound concentration.

[3] = test system: inflammatory MA (face CFA model); assay: Face Complete Freund's Adjuvant (CFA) model of inflammatory mechanical allodynia; type: in vivo; conditions: rat
Protocol: FIG. 1 illustrates the results obtained by the intracisternal application of compounds 19-24, 66-72 and 74-82. These compounds prevent face MA in a rat model of inflammatory pain (Complete Freund's Adjuvant (CFA), n=4-6 rats for each compound). For this assay, compounds (5 μL at 100 μM) or control vehicle were intra-cisternally administred 30 min before CFA injection.
Face Complete Freund's Adjuvant (CFA) Model.
CFA (Becton Dickinson) was dissolved in saline solution containing Tween 80 and paraffin oil and conserved at 4° C. For the behavioral tests, animals were briefly (<2 min) anesthetized using a mask with 2% isoflurane and received a subcutaneous injection of 25 μL of CFA (2.5 mg/kg) solution into the right vibrissa pad using a 27 Ga needle coupled to a 25 μL Hamilton syringe, as described previously. After injection, animals were awakened from anesthesia and placed in the behavioral experimental room, followed by a 120 min mechanical testing period.
Intracisternal Injection:
For investigating the effects of synthetized compounds upon mechanical allodynia, animals were briefly (<2 min) anesthetized using a mask with 2% isoflurane and received an intracisternal injection of 5 μL of compound (100 μM) or vehicle alone (saline+1% DMSO) using a 10 μL Hamilton syringe. After recovery (<2 min), rats were placed in an observation field (0.6×0.6 m square) under red light for a period test. 6-g von Frey filament was gently applied every 15 or 30 min onto the orofacial region by a first experimenter. The behavioral responses were observed and quantified by a second experimenter (see below).
Behavioral Responses to Normally Innocuous (6-g Von Frey Filament) Mechanical Stimulation.
The behavioral responses procedure was previously developed by Vos et al. 1994. A rat's response to mechanical stimulation consisted of one or more of the following elements: (1) detection, rat turn head toward stimulus; (2) withdrawal reaction, rat pull paw away or turn head away or pull it briskly backward when stimulation is applied (a withdrawal reaction is assumed to include a detection element preceding the head withdrawal and therefore consists of two responses elements); (3) escape/attack, rats avoid further contact with the stimulus, either passively by moving their bodies away from the stimulus, or actively by attacking the tip of the […]; (4) asymmetric grooming, rats display an uninterrupted series of at least three wash strokes directed to the stimulated area.
The in vivo efficacy of some compounds was evaluated on a rat model of inflammatory MA (face CFA model; Alba-Delgado et al J. Neurosci. 2018, 38, 10489-10504) (FIG. 1). After receiving a subcutaneous injection of 25 μL of CFA (2.5 mg/kg) into the right vibrissa pad, rats develop a MA that lasts days. […] In this model of inflammatory MA, MA was suppressed in compound 69 treated rats, in comparison to animals treated with vehicle (FIG. 2A).

JNK1 = JNK1 (Homo sapiens (Human), UniProt P45983); assay: ICKP protein kinase panel screening; type: biochemical; conditions: duplicate assays, read-out: mean % residual activity
Protocol: as §4, §1, §2, §5, §3

p38a MAPK = p38a MAPK (Homo sapiens (Human), UniProt Q16539); assay: ICKP protein kinase panel screening; type: biochemical; conditions: duplicate assays, read-out: mean % residual activity
Protocol: as §4, §1, §2, §5, §3

Chain of JNK1 (P45983 whole entry): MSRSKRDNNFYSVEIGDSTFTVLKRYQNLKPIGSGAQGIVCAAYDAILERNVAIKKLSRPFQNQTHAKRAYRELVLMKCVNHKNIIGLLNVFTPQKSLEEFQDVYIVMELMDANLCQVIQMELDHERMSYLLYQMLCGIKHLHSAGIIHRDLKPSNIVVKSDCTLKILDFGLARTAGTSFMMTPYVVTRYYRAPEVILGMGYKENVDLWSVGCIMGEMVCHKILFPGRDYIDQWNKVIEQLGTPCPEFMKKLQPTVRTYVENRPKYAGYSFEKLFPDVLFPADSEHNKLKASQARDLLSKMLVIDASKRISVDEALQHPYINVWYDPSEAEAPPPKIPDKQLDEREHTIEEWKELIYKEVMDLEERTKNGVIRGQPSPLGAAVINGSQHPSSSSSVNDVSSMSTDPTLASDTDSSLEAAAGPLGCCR
Chain of p38a MAPK (Q16539 whole entry): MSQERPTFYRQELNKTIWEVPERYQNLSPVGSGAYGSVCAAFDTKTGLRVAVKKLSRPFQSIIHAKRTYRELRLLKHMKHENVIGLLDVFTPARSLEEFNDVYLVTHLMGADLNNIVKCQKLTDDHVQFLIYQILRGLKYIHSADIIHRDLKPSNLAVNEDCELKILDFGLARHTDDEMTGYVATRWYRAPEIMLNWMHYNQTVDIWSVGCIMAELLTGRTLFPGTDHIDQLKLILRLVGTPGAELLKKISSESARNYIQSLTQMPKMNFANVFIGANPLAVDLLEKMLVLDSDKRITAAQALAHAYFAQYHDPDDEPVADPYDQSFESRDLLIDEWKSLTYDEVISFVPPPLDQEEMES

O=c1[nH]cc(Nc2ccccc2)cc1-c1ccccc1Br [Compound 69, 3-(2-Bromophenyl)-5-(phenylamino)pyridin-2(1H)-one]
mean percentage of residual activity, other kinases of the panel (small disks) ([1]; all kinases except p38α MAPK): ≥ 90%
selectivity for p38α MAPK over the other protein kinases incl. p38 isoforms ([1]; panel of 13 kinases): selective of p38α MAPK over the other protein kinases tested in this panel; also recorded: selective p38α MAPK inhibitor
mean percentage of residual activity, other kinases of the panel (small disks) ([2]; all kinases except p38α MAPK): ≥ 65%
selectivity for p38α MAPK over the other protein kinases ([2]; panel of 50 kinases): highly selective
prevention of inflammatory MA (allodynic score), compared with skepinone ([3]; intracisternal 5 μL at 10 μM or 100 μM, 30 min before CFA, skepinone 60 μg/rat): completely suppressed; also recorded: much more potent than skepinone
prevention of inflammatory MA (allodynic score, 6-g von Frey filament) ([3]; intracisternal 5 μL at 100 μM, 30 min before CFA): most active; also recorded: high activities; also recorded: potent preventing effect; also recorded: completely suppressed
inhibition of inflammatory MA ([3]; intracisternal 5 μL at 100 μM, 30 min before CFA injection): 99%
remaining activity at 1 µM (JNK1; 1 μM): 115%
remaining activity at 10 µM (JNK1; 10 μM): 102%
remaining activity at 1 µM (p38a MAPK; 1 μM): 59%
remaining activity at 10 µM (p38a MAPK; 10 μM): 19%

Source: US12351556B2, “Pyridin-2(1H)one derivatives, their preparation and their use for the treatment of pain” (INSTITUT NATIONAL DE LA SANTE ET DE LA RECHERCHE MEDICALE …, priority 2019, dated 2025)
